Data on 29 compounds can be found in patent publication US8183262B2, “Pyridine derivatives as mGluR2 antagonists” (Hoffmann-La Roche Inc., priority 2007, dated 2012).

SMILES strings stand for the structures.

The term melting point denotes the temperature, or range, at which the solid turns liquid. As to `COC1CCN(S(=O)(=O)c2cccc(-c3cccc(-c4cc(-c5ccc(C(F)(F)F)cc5)cc(C)n4)n3)c2)CC1` [Example 429, 6′-[3-(4-Methoxy-piperidine-1-sulfonyl)-phenyl]-6-methyl-4-(4-trifluoromethyl-phenyl)-[2,2′]bipyridinyl], the melting point is 107 °C. Compound `Cc1cc(-c2ccc(C(F)(F)F)cc2)cc(-c2cccc(-c3cccc(S(=O)(=O)NCc4ccccc4)c3)n2)n1` [Example 431, N-Benzyl-3-[6′-methyl-4′-(4-trifluoromethyl-phenyl)-[2,2′]bipyridinyl-6-yl]-benzenesulfonamide] registered a melting point of 168 °C. As to `COc1ccc(CNS(=O)(=O)c2cccc(-c3cccc(-c4cc(-c5ccc(C(F)(F)F)cc5)cc(C)n4)n3)c2)cc1` [Example 432, N-(4-Methoxy-benzyl)-3-[6′-methyl-4′-(4-trifluoromethyl-phenyl)-[2,2′]bipyridinyl-6-yl]-benzenesulfonamide], the melting point is 126 °C (dec.).

`Cc1cc(-c2ccc(C(F)(F)F)cc2)cc(-c2cccc(-c3cccc(S(=O)(=O)NCc4ccc(F)cc4)c3)n2)n1` [Example 433, N-(4-Fluoro-benzyl)-3-[6′-methyl-4′-(4-trifluoromethyl-phenyl)-[2,2′]bipyridinyl-6-yl]-benzenesulfonamide] showed a melting point of 175 °C. Turning to `Cc1cc(-c2ccc(C(F)(F)F)cc2)cc(-c2cccc(-c3cccc(S(=O)(=O)N4CCC(Oc5ncccn5)CC4)c3)n2)n1` [Example 435, 6-Methyl-6′-{3-[4-(pyrimidin-2-yloxy)-piperidine-1-sulfonyl]-phenyl}-4-(4-trifluoromethyl-phenyl)-[2,2′]bipyridinyl], the melting point was 134 °C (dec.). Then `Cc1cc(-c2ccc(OC(F)(F)F)cc2)cc(-c2cccc(-c3cccc(S(=O)(=O)NC(C)(C)C)c3)n2)n1` [Example 436, N-tert-Butyl-3-[6′-methyl-4′-(4-trifluoromethoxy-phenyl)-[2,2′]bipyridinyl-6-yl]-benzenesulfonamide], with 148 °C; and `Cc1cc(-c2ccc(OC(F)(F)F)cc2)cc(-c2cccc(-c3cccc(S(N)(=O)=O)c3)n2)n1` [Example 437, 3-[6′-Methyl-4′-(4-trifluoromethoxy-phenyl)-[2,2′]bipyridinyl-6-yl]-benzenesulfonamide], with 231 °C (dec.).

Turning to `Cc1cc(-c2ccc(C(F)(F)F)c(C)c2)cc(-c2cccc(-c3cccc(S(=O)(=O)NC(C)(C)C)c3)n2)n1` [Example 438, N-tert-Butyl-3-[6′-methyl-4′-(3-methyl-4-trifluoromethyl-phenyl)-[2,2′]bipyridinyl-6-yl]-benzenesulfonamide], the melting point is 150 °C (dec.).

Consider `NS(=O)(=O)c1cccc(-c2cccc(-c3cc(-c4ccc(C(F)(F)F)cc4)cc(CO)n3)n2)c1` [Example 439, 3-[6′-Hydroxymethyl-4′-(4-trifluoromethyl-phenyl)-[2,2′]bipyridinyl-6-yl]-benzenesulfonamide], for which the melting point is 213 °C (dec.). `Cc1cc(-c2ccc(C(F)(F)F)c(C)c2)cc(-c2cccc(-c3cccc(S(N)(=O)=O)c3)n2)n1` [Example 440, 3-[6′-Methyl-4′-(3-methyl-4-trifluoromethyl-phenyl)-[2,2′]bipyridinyl-6-yl]-benzenesulfonamide] came in with a melting point above 250 °C. Compound `Cc1cc(-c2ccc(C#N)cc2)nc(-c2cccc(-c3cccc(S(N)(=O)=O)c3)n2)n1` [Example 442, 3-{6-[4-(4-Cyano-phenyl)-6-methyl-pyrimidin-2-yl]-pyridin-2-yl}-benzenesulfonamide] had a melting point of 255 °C.

The compound `CC(=O)NS(=O)(=O)c1cccc(-c2cccc(-c3cc(-c4ccc(C(F)(F)F)cc4)cc(C)n3)n2)c1` [Example 443, N-Acetyl-3-[6′-methyl-4′-(4-trifluoromethyl-phenyl)-[2,2′]bipyridinyl-6-yl]-benzenesulfonamide] yielded a melting point of 244 °C. `Cc1cc(-c2ccc(C(F)(F)F)cc2)cc(-c2cccc(-c3cccc(S(=O)(=O)NC4CCOCC4)c3)n2)n1` [Example 444, 3-[6′-Methyl-4′-(4-trifluoromethyl-phenyl)-[2,2′]bipyridinyl-6-yl]-N-(tetrahydro-pyran-4-yl)-benzenesulfonamide]: the melting point was 163 °C (dec.). Turning to `CCNS(=O)(=O)c1cccc(-c2cccc(-c3cc(-c4ccc(C(F)(F)F)cc4)cc(C)n3)n2)c1` [Example 446, N-Ethyl-3-[6′-methyl-4′-(4-trifluoromethyl-phenyl)-[2,2′]bipyridinyl-6-yl]-benzenesulfonamide], the melting point was 135 °C.

`NS(=O)(=O)c1cccc(-c2cccc(-c3nc(-c4ccc(C(F)(F)F)c(OCC(F)(F)F)c4)cc(C(F)(F)F)n3)c2)c1` [Example 447, 3′-{4-[3-(2,2,2-Trifluoro-ethoxy)-4-trifluoromethyl-phenyl]-6-trifluoromethyl-pyrimidin-2-yl}-biphenyl-3-sulfonic acid amide] gave a melting point of 188 °C.

In the case of `NS(=O)(=O)c1cccc(-c2cc(-c3nc(-c4ccc(C(F)(F)F)c(OCC(F)(F)F)c4)cc(C(F)(F)F)n3)ccn2)c1` [Example 448, 3-(4-{4-[3-(2,2,2-Trifluoro-ethoxy)-4-trifluoromethyl-phenyl]-6-trifluoromethyl-pyrimidin-2-yl}-pyridin-2-yl)-benzenesulfonamide], the melting point is 211 °C.

Turning to `NS(=O)(=O)c1cccc(-c2cc(-c3nc(-c4cccc(C(F)(F)F)c4)cc(C(F)(F)F)n3)ccn2)c1` [Example 449, 3-{4-[4-Trifluoromethyl-6-(3-trifluoromethyl-phenyl)-pyrimidin-2-yl]-pyridin-2-yl}-benzenesulfonamide], the melting point was 244 °C. Then `NS(=O)(=O)c1cccc(-c2cc(-c3nc(-c4ccc(C(F)(F)F)cc4F)cc(C(F)(F)F)n3)ccn2)c1` [Example 450, 3-{4-[4-(2-Fluoro-4-trifluoromethyl-phenyl)-6-trifluoromethyl-pyrimidin-2-yl]-pyridin-2-yl}-benzenesulfonamide], with 210 °C; and `NS(=O)(=O)c1ccc(-c2cc(-c3nc(-c4ccc(C(F)(F)F)cc4F)cc(C(F)(F)F)n3)ccn2)s1` [Example 451, 5-{4-[4-(2-Fluoro-4-trifluoromethyl-phenyl)-6-trifluoromethyl-pyrimidin-2-yl]-pyridin-2-yl}-thiophene-2-sulfonic acid amide], with 228 °C. As to `CCOc1cc(-c2cc(C(F)(F)F)nc(-c3ccnc(-c4ccc(S(N)(=O)=O)s4)c3)n2)ccc1C(F)(F)F` [Example 453, 5-{4-[4-(3-Ethoxy-4-trifluoromethyl-phenyl)-6-trifluoromethyl-pyrimidin-2-yl]-pyridin-2-yl}-thiophene-2-sulfonic acid amide], the melting point worked out at 237.5 °C. As to `CCCC(=O)NS(=O)(=O)c1cccc(-c2cccc(-c3cc(-c4ccc(C(F)(F)F)cc4)cc(C)n3)n2)c1` [Example 454, N-Butyryl-3-[6′-methyl-4′-(4-trifluoromethyl-phenyl)-[2,2′]bipyridinyl-6-yl]-benzenesulfonamide], the melting point was 188 °C.

As to `Cc1cc(-c2ccc(C(F)(F)F)cc2)cc(-c2cccc(-c3cccc(S(=O)(=O)NC(=O)C(C)C)c3)n2)n1` [Example 455, N-Isobutyryl-3-[6′-methyl-4′-(4-trifluoromethyl-phenyl)-[2,2′]bipyridinyl-6-yl]-benzenesulfonamide], the melting point was determined as 190 °C. `NS(=O)(=O)c1cccc(-c2cccc(-c3nc(-c4ccc(C(F)(F)F)cc4)cc(C(F)F)n3)c2)c1` [Example 456, 3′-[4-Difluoromethyl-6-(4-trifluoromethyl-phenyl)-pyrimidin-2-yl]-biphenyl-3-sulfonic acid amide] yielded a melting point of 204 °C. Then `NS(=O)(=O)c1cccc(-c2cc(-c3nc(-c4ccc(C(F)(F)F)cc4)cc(C(F)F)n3)ccn2)c1` [Example 457, 3-{4-[4-Difluoromethyl-6-(4-trifluoromethyl-phenyl)-pyrimidin-2-yl]-pyridin-2-yl}-benzenesulfonamide], with 233.5 °C; and `NS(=O)(=O)c1ccc(-c2cc(-c3nc(-c4ccc(C(F)(F)F)cc4)cc(C(F)F)n3)ccn2)s1` [Example 458, 5-{4-[4-Difluoromethyl-6-(4-trifluoromethyl-phenyl)-pyrimidin-2-yl]-pyridin-2-yl}-thiophene-2-sulfonic acid amide], with 242 °C.

In turn, `NS(=O)(=O)c1ccc(-c2cccc(-c3nc(-c4ccc(C(F)(F)F)cc4)cc(C(F)F)n3)c2)s1` [Example 459, 5-{3-[4-Difluoromethyl-6-(4-trifluoromethyl-phenyl)-pyrimidin-2-yl]-phenyl}-thiophene-2-sulfonic acid amide] returned a melting point of 240.5 °C. The figure for `NS(=O)(=O)c1cccc(-c2cccc(-c3nc(-c4ccc(C(F)(F)F)c(F)c4)cc(C(F)(F)F)n3)c2)c1` [Example 460, 3′-[4-(3-Fluoro-4-trifluoromethyl-phenyl)-6-trifluoromethyl-pyrimidin-2-yl]-biphenyl-3-sulfonic acid amide] is 227.5 °C; for `NS(=O)(=O)c1ccc(-c2cccc(-c3nc(-c4ccc(C(F)(F)F)c(F)c4)cc(C(F)(F)F)n3)c2)s1` [Example 461, 5-{3-[4-(3-Fluoro-4-trifluoromethyl-phenyl)-6-trifluoromethyl-pyrimidin-2-yl]-phenyl}-thiophene-2-sulfonic acid amide] it is 213.5 °C; for `COCC(=O)NS(=O)(=O)c1cccc(-c2cccc(-c3cc(-c4ccc(C(F)(F)F)cc4)cc(C)n3)n2)c1` [Example 462, N-(2-Methoxy-acetyl)-3-[6′-methyl-4′-(4-trifluoromethyl-phenyl)-[2,2′]bipyridinyl-6-yl]-benzenesulfonamide] it is 188 °C.
